Measurements published in ChEMBL document CHEMBL4507294, “Data for DCP probe MSD-CYP11B2” (2021).

Columns and labels:
Rattus norvegicus [1] = organism: Rattus norvegicus; assay: Glutamate, NMDA, Polyamine Eurofins-Panlabs radioligand binding assay; type: protein-complex assay; set-up: ligand concentration 2 nM; conditions: Compound concentration 10.0 uM
[2] = target: T1, Beta-1 adrenergic receptor (Homo sapiens, UniProt P08588); assay: GPCRScan assay: inhibition of Beta1; set-up: radioligand conc. used [nm] 0.1 – 0.2, parental cells CHO Flp-In
Target sequence in this assay (P08588 whole entry): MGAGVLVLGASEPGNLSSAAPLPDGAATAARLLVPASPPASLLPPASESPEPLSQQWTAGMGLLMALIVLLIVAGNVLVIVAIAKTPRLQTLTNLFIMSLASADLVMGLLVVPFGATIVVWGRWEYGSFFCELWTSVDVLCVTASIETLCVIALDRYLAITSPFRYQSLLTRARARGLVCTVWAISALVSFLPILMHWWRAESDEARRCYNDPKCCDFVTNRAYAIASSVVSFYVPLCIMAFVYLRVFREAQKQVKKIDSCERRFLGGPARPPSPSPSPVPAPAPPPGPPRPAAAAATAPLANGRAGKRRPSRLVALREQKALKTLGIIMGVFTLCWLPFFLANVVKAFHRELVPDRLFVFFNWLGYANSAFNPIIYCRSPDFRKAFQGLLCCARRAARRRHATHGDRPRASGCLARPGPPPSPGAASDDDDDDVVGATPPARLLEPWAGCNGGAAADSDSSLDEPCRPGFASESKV

[3] = target: T1, Beta-1 adrenergic receptor; assay: Panlabs assay (ADRB1); set-up: compound concentration 10 uM
Target sequence in this assay (P08588 whole entry): as above

[4] = target: Alpha-2C adrenergic receptor (Homo sapiens, UniProt P18825); assay: GPCRScan assay: inhibition of Alpha2C; set-up: radioligand conc. used [nm] 0.5 – 1.0, parental cells stable MDCK
Alpha-2C adrenergic receptor, sequence (P18825 whole entry): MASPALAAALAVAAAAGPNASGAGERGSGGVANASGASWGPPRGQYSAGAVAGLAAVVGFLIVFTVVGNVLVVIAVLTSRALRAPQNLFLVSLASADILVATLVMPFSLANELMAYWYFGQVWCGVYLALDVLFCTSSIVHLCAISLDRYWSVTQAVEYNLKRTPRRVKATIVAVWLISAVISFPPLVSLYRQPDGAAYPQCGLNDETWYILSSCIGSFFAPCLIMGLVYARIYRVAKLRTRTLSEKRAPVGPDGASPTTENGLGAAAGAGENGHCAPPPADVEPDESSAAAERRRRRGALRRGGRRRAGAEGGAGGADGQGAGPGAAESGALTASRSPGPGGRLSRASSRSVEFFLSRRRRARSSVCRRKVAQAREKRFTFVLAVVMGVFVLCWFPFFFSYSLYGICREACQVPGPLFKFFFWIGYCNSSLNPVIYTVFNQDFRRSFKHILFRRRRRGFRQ

[5] = target: Peroxisome proliferator-activated receptor gamma (Homo sapiens) (UniProt P37231); assay: PPARgamma Eurofins-Panlabs radioligand binding assay; set-up: ligand concentration 5 nM, non-specific ligand with concentration 0.5 µM L-797773, incubation time 18 h, incubation temperature 15 °C; conditions: Compound concentration 10.0 uM
Peroxisome proliferator-activated receptor gamma (Homo sapiens), sequence (P37231 whole entry): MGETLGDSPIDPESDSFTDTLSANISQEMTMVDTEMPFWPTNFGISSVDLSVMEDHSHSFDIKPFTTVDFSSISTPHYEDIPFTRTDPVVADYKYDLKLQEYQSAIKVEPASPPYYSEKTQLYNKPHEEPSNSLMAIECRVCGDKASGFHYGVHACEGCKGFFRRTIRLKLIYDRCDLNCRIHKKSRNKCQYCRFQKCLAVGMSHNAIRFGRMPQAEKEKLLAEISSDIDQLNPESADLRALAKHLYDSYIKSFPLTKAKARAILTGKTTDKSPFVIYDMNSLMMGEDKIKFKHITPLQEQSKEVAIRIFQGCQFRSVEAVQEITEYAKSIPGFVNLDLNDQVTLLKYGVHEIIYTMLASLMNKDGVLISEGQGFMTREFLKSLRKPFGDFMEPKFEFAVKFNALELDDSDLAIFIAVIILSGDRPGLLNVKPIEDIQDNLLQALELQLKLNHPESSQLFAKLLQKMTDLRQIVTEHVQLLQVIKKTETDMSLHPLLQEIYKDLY

[6] = target: Estrogen receptor (Homo sapiens) (UniProt P03372); conditions: Compound concentration 10.0 uM
Estrogen receptor (Homo sapiens), sequence (P03372 whole entry): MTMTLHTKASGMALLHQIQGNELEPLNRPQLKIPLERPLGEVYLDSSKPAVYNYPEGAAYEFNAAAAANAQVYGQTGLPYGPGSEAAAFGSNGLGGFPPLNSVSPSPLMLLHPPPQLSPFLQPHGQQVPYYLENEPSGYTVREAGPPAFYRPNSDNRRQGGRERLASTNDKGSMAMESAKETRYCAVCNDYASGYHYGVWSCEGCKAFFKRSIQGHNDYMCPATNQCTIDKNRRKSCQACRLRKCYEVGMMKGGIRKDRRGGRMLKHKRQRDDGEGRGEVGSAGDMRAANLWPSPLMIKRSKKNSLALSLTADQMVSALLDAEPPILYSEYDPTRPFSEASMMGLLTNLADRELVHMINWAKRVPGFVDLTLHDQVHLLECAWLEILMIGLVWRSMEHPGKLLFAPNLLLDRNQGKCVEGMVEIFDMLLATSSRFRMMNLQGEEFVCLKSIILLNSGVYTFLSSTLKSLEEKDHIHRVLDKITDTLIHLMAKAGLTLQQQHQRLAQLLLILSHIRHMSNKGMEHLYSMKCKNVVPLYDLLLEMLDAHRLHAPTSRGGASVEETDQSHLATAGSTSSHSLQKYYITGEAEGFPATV

Rattus norvegicus [7] = organism: Rattus norvegicus; assay: GABAA, Ro-15-1788, Hippocampus Eurofins-Panlabs radioligand binding assay; set-up: ligand concentration 1 nM; conditions: Compound concentration 10.0 uM
[8] = target: 5-hydroxytryptamine receptor 2B (Homo sapiens, UniProt P41595)
5-hydroxytryptamine receptor 2B, sequence (P41595 whole entry): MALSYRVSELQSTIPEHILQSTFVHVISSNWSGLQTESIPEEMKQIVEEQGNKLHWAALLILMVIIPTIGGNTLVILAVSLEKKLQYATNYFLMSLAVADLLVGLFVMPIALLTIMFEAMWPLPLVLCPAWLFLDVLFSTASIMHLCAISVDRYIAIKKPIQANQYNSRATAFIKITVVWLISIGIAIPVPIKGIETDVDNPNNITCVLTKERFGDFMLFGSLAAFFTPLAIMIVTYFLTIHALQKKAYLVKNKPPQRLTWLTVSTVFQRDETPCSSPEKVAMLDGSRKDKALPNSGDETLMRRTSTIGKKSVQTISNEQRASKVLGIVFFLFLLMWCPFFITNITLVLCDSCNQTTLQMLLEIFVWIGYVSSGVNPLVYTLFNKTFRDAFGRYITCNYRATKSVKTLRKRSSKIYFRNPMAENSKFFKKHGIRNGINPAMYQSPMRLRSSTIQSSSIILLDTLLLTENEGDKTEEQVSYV

[9] = target: T1, Beta-1 adrenergic receptor
Target sequence in this assay (P08588 whole entry, looked up): as the sequence (P08588 whole entry) above

[10] = target: T1, Beta-1 adrenergic receptor; assay: Inhibition of Adrenergic beta1 at compound concentration of 10.0 uM in the Eurofins-Panlabs radioligand binding assay (Eurofins_assay_204010); set-up: ligand concentration 0.03 nM, non-specific ligand with concentration 100 uM S(-)-Propranolol, incubation time 2 h, incubation temperature 25 C
Target sequence in this assay (P08588 whole entry): as above

[11] = target: Muscarinic acetylcholine receptor M3 (Homo sapiens) (UniProt P20309); conditions: Compound concentration 10.0 uM
Muscarinic acetylcholine receptor M3 (Homo sapiens), sequence (P20309 whole entry, looked up): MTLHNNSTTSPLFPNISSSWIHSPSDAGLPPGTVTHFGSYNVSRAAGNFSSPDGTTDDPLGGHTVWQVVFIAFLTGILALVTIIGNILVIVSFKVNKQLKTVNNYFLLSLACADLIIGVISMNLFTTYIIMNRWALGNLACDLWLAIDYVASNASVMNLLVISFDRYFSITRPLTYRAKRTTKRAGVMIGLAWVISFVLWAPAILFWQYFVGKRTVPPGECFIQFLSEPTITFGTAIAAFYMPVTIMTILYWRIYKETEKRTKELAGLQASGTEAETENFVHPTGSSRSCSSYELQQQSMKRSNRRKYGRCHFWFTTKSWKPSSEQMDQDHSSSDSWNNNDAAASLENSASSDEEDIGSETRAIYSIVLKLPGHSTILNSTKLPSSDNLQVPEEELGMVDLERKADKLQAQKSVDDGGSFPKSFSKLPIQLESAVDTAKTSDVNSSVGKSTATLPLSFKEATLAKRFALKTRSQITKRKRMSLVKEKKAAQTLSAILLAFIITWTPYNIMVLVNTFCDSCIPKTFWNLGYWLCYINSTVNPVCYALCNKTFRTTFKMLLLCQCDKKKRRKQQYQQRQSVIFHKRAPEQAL

[12] = target: Phosphodiesterase 3 (Homo sapiens) (UniProt Q14432+Q13370); assay: Inhibition of Phosphodiesterase PDE3 at compound concentration of 10.0 uM in the Eurofins-Panlabs enzyme assay (Eurofins_assay_152000); type: protein assay; set-up: substrate with concentration 1.01 uM [3H] cAMP + cAMP, incubation time 20 min, incubation temperature 25 C; conditions: Compound concentration 10.0 uM
Homo sapiens = organism: Homo sapiens; assay: Inhibition of Nicotinic Acetylcholine at compound concentration of 10.0 uM in the Eurofins-Panlabs radioligand binding assay (Eurofins_assay_258590); type: protein-complex assay; conditions: Compound concentration 10.0 uM
[13] = target: T2, Alpha-2B adrenergic receptor (Homo sapiens, UniProt P18089); assay: Inhibition of Adrenergic alpha2B at compound concentration of 10.0 uM in the Eurofins-Panlabs radioligand binding assay (Eurofins_assay_203710); set-up: ligand concentration 2.5 nM, non-specific ligand with concentration 10 uM Prazosin, incubation time 60 min, incubation temperature 25 C
T2 sequence (P18089 whole entry): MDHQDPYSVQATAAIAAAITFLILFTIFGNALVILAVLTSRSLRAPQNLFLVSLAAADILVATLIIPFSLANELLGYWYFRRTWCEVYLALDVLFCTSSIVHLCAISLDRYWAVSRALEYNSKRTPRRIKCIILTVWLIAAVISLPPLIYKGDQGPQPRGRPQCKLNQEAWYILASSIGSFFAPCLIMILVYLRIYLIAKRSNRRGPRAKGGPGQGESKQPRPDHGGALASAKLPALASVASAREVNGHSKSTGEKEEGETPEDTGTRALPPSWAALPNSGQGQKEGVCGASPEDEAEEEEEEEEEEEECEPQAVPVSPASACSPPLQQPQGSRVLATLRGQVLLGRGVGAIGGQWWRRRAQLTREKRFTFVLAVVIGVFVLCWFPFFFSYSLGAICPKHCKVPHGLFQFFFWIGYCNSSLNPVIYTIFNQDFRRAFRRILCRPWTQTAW

[14] = target: D(2) dopamine receptor (Homo sapiens) (UniProt P14416); conditions: Compound concentration 10.0 uM
D(2) dopamine receptor (Homo sapiens), sequence (P14416 whole entry): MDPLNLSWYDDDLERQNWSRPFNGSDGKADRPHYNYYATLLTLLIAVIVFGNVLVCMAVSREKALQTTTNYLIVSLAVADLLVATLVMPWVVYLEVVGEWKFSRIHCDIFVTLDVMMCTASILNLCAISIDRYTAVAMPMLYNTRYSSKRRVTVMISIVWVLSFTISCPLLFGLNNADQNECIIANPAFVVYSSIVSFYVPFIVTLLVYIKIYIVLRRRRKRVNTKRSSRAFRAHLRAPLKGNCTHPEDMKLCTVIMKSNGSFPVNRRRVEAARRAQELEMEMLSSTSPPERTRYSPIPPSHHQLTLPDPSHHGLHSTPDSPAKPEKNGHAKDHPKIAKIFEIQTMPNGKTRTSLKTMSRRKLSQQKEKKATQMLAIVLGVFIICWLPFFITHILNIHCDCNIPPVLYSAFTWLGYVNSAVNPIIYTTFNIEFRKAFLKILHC

**Q.** For `CC(C)(O)c1cncc(-c2nc3ccc(F)cc3n2C2CC2)c1` [MSD-CYP11B2], which inhibition (Rattus norvegicus [1]) is on record?
**A.** The inhibition was -3%.

**Q.** What about the Ki [2] of the same molecule?
**A.** Its Ki is 2.37 µM.

**Q.** What about the IC50 [3] of the same molecule?
**A.** Its IC50 is 9.62 µM.

**Q.** And the Ki [4]?
**A.** The Ki was 0.626 µM.

**Q.** And the inhibition [5]?
**A.** The inhibition was 8%.

**Q.** And the inhibition [6]?
**A.** Its inhibition is 1%.

**Q.** And the inhibition (Rattus norvegicus [7])?
**A.** Its inhibition is 12%.

**Q.** What about the inhibition ([8]; Compound concentration 0.01 uM) of the same molecule?
**A.** Its inhibition is -2%.

**Q.** What about the inhibition ([8]; Compound concentration 0.1 uM) of the same molecule?
**A.** Its inhibition is -5%.

**Q.** What about the inhibition ([8]; Compound concentration 1.0 uM) of the same molecule?
**A.** Its inhibition is 17%.

**Q.** What about the inhibition ([8]; Compound concentration 10.0 uM) of the same molecule?
**A.** The inhibition was 65%.

**Q.** What about the inhibition ([9]; Compound concentration 0.01 uM) of the same molecule?
**A.** Its inhibition is 5%.

**Q.** What about the inhibition ([9]; Compound concentration 0.1 uM) of the same molecule?
**A.** Its inhibition is -1%.

**Q.** What about the inhibition ([9]; Compound concentration 1.0 uM) of the same molecule?
**A.** The inhibition was 9%.

**Q.** And the inhibition ([9]; Compound concentration 10.0 uM)?
**A.** Its inhibition is 51%.

**Q.** And the IC50 [10]?
**A.** The IC50 was 9.62 µM.

**Q.** And the Ki [10]?
**A.** The Ki was 5.55 µM.

**Q.** What about the inhibition [11] of the same molecule?
**A.** Its inhibition is 2%.

**Q.** And the inhibition [12]?
**A.** The inhibition was 10%.

**Q.** What about the inhibition (Homo sapiens) of the same molecule?
**A.** The inhibition was -3%.

**Q.** And the IC50 [13]?
**A.** Its IC50 is 4.7 µM.

**Q.** What about the Ki [13] of the same molecule?
**A.** The Ki was 2.15 µM.

**Q.** And the inhibition [14]?
**A.** The inhibition was -4%.
